US8008506B2, “Indazole compounds” (priority 2008, dated 2011)
pEC50: −log10 of the molar value. Converted amounts (≈) assume the structure as drawn.

Legend:
[1] = Test Example 14: stability in phosphate buffer solution at pH 6.8; format: physicochemical
Procedure: (§1) A test compound is prepared in pure water to be in the saturated state. This solution is shaken for one hour at room temperature. After the shaking, the entire amount of the solution is transferred into a filter tube, and the solution is filtered by centrifugation. The filtrate is analyzed by HPLC immediately after filtration, 24 hours after filtration, and 48 hours after filtration. The stability of the test compound is determined using a calibration curve, based on the peak area value.
Test on Stability in Phosphate Buffer Solution at pH 6.8
The stability of a test compound is determined by performing the same test as that performed in Test Example 13, except that the pure water is changed to a phosphate buffer solution at pH 6.8.

[2] = target: T1, human β3 adrenergic receptor (Homo sapiens, UniProt P13945); experiment: Test Example 1-A: human β3 adrenergic receptor agonist activity (cAMP EIA, transfected CHO cells, 24-well); format: cell-based; conditions: Table 1; for pEC50: Test Example 1-A; for β3 receptor I.A.: maximum response to isoproterenol taken as 100%
T1 construct: the full length human β3 gene is obtained from a human genomic library; expressed in transfected cells; host or cells: CHO (Chinese Hamster Ovary) cells, pcDNA3, geneticin selection
T1 sequence (P13945 whole entry): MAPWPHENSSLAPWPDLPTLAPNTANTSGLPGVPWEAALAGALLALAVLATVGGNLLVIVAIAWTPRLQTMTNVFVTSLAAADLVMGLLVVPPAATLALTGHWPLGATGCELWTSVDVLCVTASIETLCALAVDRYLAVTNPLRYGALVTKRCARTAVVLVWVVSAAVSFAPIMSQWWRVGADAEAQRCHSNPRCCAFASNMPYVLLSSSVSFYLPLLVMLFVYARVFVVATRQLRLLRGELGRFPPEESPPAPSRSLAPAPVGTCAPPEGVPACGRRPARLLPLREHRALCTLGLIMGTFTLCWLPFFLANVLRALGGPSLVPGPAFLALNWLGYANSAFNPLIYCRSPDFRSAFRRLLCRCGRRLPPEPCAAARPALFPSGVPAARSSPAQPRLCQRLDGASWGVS
Procedure: Measurement of Human β3 Adrenergic Receptor Agonist Activity
(§2) The measurement of human β3 adrenergic receptor agonist activity is carried out using CHO (Chinese Hamster Ovary) cells transfected with pcDNA3 (manufactured by Invitrogen, Inc.) to which human β3 gene has been inserted. […] This human β3 cDNA fragment is used as a probe, and the full length human β3 gene is obtained from a human genomic library (manufactured by Clontech Laboratories, Inc.). The above cells are cultured in Ham's F-12 medium containing 10% fetal bovine serum and 400 μg/ml geneticin (manufactured by Invitrogen, Inc.). These cells are seeded on a 24-well plate to a concentration of 1×10^5 cells/well, and after being cultured for about 20 hours, the cells are left to stand in serum-free Ham's F-12 medium for 2 hours. A test compound is initially dissolved in DMSO, and then is diluted stepwise with Ham's F-12 containing 20 mmol/L HEPES, 1 mmol/L isobutylmethylxanthine, and 1 mmol/L ascorbic acid. The dilution is added to the cells. After the cells are cultured for 30 minutes, and then the medium is removed, followed by addition of 0.1 ml of 1 N NaOH to the cells. The cells are left to stand for 20 minutes, and then are added with 0.1 ml of 1 N acetic acid and are stirred. The resulting cell lysate is centrifuged, and then is subjected to quantification of cAMP with cAMP EIA kit (manufactured by Cayman Chemical Co.).

[3] = target: T2, human β1 adrenergic receptor (Homo sapiens, UniProt P08588); experiment: Test Example 2-A: human β1 adrenergic receptor agonist activity (method of Test Example 1-A); format: cell-based; conditions: Table 1; for β1 receptor EC50: Test Example 2-A; for β1 receptor I.A.: maximum response to isoproterenol taken as 100%
T2 construct: expressed in transfected cells; host or cells: CHO (Chinese Hamster Ovary) cells, pcDNA3
T2 sequence (P08588 whole entry): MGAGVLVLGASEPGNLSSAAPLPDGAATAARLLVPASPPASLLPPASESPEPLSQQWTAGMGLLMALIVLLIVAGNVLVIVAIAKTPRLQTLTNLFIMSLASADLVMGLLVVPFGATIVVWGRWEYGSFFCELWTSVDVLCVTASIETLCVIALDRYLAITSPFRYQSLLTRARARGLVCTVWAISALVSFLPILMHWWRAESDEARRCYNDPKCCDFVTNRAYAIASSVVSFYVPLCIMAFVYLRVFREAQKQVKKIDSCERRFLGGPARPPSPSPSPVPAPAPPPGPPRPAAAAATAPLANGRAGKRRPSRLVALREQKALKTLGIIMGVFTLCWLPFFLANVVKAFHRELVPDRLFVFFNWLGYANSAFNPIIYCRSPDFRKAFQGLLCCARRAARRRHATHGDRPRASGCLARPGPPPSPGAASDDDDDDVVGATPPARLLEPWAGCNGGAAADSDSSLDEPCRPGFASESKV
Procedure: as §2, with “Co.). […] Measurement of Human β1 Adrenergic Receptor Agonist Activity” for “Co.).”

[4] = target: T3, human β2 adrenergic receptor (Homo sapiens, UniProt P07550); experiment: Test Example 3-A: human β2 adrenergic receptor agonist activity (method of Test Example 1-A); format: cell-based; conditions: Table 1; for β2 receptor EC50: Test Example 3-A; for β2 receptor I.A.: maximum response to isoproterenol taken as 100%
T3 construct: expressed in transfected cells; host or cells: CHO (Chinese Hamster Ovary) cells, pcDNA3
T3 sequence (P07550 whole entry): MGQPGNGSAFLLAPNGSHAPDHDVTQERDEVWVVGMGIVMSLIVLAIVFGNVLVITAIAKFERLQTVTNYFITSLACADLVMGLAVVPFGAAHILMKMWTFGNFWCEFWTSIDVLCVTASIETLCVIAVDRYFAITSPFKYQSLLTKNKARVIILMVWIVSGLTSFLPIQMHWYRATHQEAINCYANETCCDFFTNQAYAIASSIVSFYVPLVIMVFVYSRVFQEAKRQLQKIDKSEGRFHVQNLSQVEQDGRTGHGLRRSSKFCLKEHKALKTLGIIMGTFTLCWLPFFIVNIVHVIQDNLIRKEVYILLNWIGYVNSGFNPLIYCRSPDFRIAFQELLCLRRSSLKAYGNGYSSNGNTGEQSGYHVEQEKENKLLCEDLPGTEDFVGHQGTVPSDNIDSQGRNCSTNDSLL
Procedure: [Worded in the source for another target; this target is reported under the same test.] as §2, with “Co.). […] Measurement of Human β2 Adrenergic Receptor Agonist Activity” for “Co.).”

[5] = Test Example 10: saturation solubility in pure water; format: physicochemical; conditions: thermodynamic from solid, room temperature, shaken one hour
Procedure: Saturation Solubility in Pure Water
as §1, with “HPLC,” for “HPLC immediately after filtration, 24 hours after filtration,”, “the saturation solubility” for “48 hours after filtration. The stability”
A standard solution is prepared by precisely weighing each test compound, and preparing a solution that sufficiently dissolves in pure water. The calibration curve is produced by assigning the concentration of the standard solution to the horizontal axis, and assigning the HPLC area peak at the concentration to the vertical axis.
YMC-Pack C18 (4.6 mm×150 mm) (manufactured by YMC Co., Ltd.) is used as a separating column. The detection is performed with UV-254 nm. Elution is carried out at a flow rate of 1 ml/min, using solution A=water [containing 0.1% (v/v) acetic acid] and solution B=acetonitrile as the solvents, under the conditions in which a linear gradient of the solution B is run from 5 to 98% (v/v) from zero minute to 20 minute, subsequently solution B is eluted at 98% up to 25 minute, and the solution B is eluted at 5% from 25.01 minute to 35 minute.

| HPLC area percent ([1]; after 24 hours) [%] | HPLC area percent ([1]; after 48 hours) [%] | HPLC area percent ([1]; immediately after filtration) [%] | pEC50 [2] | β3 receptor I.A. [2] [%] | β1 receptor EC50 [3] | β1 receptor I.A. [3] [%] | β2 receptor EC50 [4] | β2 receptor I.A. [4] [%] | solubility at 1 h [5] [mg/mL] | SMILES |
| --- | --- | --- | --- | --- | --- | --- | --- | --- | --- | --- |
| 99.6 | 99.6 | 99.6 |  |  |  |  |  |  | 71 (≈ 155 mM) | CS(=O)(=O)Nc1cccc([C@@H](O)CNCCOc2ccc3c(C(F)(F)F)n[nH]c3c2)c1 [Example 4, (R)-N-(3-(1-hydroxy-2-(2-(3-trifluoromethylindazol-6-yloxy)ethylamino)ethyl)phenyl)methanesulfonamide] |
|  |  |  | 7.29 | 75 | a) | 3.3 | a) | 3.2 | 491 (≈ 1000 mM) | CN(C)C(=O)CCc1n[nH]c2cc(OCCNC[C@H](O)c3cccc(NS(C)(=O)=O)c3)ccc12 [Example 5, (R)-3-(6-(2-(2-hydroxy-2-(3-(methylsulfonamido)phenyl)ethylamino)ethoxy)-indazol-3-yl)-N,N-dimethylpropanamide] |
|  |  |  | 8.13 | 82 | a) | 3.3 | a) | 7.6 |  | COCc1n[nH]c2cc(OCCNC[C@H](O)c3cccc(NS(C)(=O)=O)c3)ccc12 [Example 6, (R)-N-(3-(1-hydroxy-2-(2-(3-methoxymethylindazol-6-yloxy)ethylamino)ethyl)phenyl)methanesulfonamide] |

Continued, compound first:

| SMILES | HPLC area percent ([1]; after 24 hours) [%] | HPLC area percent ([1]; after 48 hours) [%] | HPLC area percent ([1]; immediately after filtration) [%] | pEC50 [2] | β3 receptor I.A. [2] [%] | β1 receptor EC50 [3] | β1 receptor I.A. [3] [%] | β2 receptor EC50 [4] | β2 receptor I.A. [4] [%] | solubility at 1 h [5] [mg/mL] |
| --- | --- | --- | --- | --- | --- | --- | --- | --- | --- | --- |
| CC(C)c1n[nH]c2cc(OCCNC[C@H](O)c3cccc(NS(C)(=O)=O)c3)ccc12 [Example 1, (R)-N-(3-(1-hydroxy-2-(2-(3-isopropylindazol-6-yloxy)ethylamino)ethyl)phenyl)methanesulfonamide] | 99.9 | 100 | 99.8 |  |  |  |  |  |  |  |
| CCc1n[nH]c2cc(OCCNC[C@H](O)c3cccc(NS(C)(=O)=O)c3)ccc12 [Example 2, (R)-N-(3-(1-hydroxy-2-(2-(3-ethylindazol-6-yloxy)ethylamino)ethyl)phenyl)methanesulfonamide] | 98.2 | 98.2 | 98.2 | 7.54 | 77 | a) | 8.1 | a) | 3.0 | 204 (≈ 487 mM) |
| CCCc1n[nH]c2cc(OCCNC[C@H](O)c3cccc(NS(C)(=O)=O)c3)ccc12 [Example 3, (R)-N-(3-(1-hydroxy-2-(2-(3-propylindazol-6-yloxy)ethylamino)ethyl)phenyl)methanesulfonamide] |  |  |  | 7.54 | 77 |  |  |  |  | 50 (≈ 116 mM) |
